Series [1] is described as follows: growth suppression of PTEN-null colon cells, dose response, cell-based, HCT116 PTEN knockout (AID 1047).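 Also: HCT116 colon tumor cells with PTEN knocked out; cells exposed to compound for 60 hours before readout; potency for loss of cell viability measured by luminescence.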 Format: functional.
Series [2] can be described thus: growth suppression of beta-catenin-knockout colon cells, dose response, cell-based, HCT116, human colon tumor (AID 1045).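 Also: HCT116 colon tumor cells with beta catenin knocked out; cells exposed to compound for 60 hours.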 Type of series: functional.
In series [3] the target is T1, Heat shock factor protein 1 (Mus musculus, UniProt P38532).
T1 sequence (P38532 whole entry): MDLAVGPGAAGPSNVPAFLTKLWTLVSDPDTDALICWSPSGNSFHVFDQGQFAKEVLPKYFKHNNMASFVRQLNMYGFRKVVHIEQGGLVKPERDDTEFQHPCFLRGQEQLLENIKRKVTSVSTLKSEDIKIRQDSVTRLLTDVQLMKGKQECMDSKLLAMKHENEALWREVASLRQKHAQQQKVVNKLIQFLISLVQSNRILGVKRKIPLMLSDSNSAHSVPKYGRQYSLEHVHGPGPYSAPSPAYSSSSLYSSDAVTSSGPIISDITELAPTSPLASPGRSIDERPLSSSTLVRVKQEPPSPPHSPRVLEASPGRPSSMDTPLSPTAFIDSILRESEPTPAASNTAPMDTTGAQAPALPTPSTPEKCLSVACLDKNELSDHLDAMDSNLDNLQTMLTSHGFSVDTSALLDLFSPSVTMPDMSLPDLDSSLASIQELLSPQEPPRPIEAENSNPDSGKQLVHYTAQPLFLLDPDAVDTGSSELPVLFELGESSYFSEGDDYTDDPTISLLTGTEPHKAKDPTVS
The series can be described thus: inhibition of MG132-induced HSE-luciferase signal, confirmation, cell-based, NIH3T3, luminescence, dose retest (AID 2382).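 Also: NIH3T3 fibroblasts with HSF1-driven luciferase reporter stressed by proteasome inhibitor MG132; luminescence from HSF1-driven luciferase expression after 8 hours of MG132 stress.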 Format: functional.

The next series has as its target Cytochrome P450 2C19 (Homo sapiens, UniProt P33261). The series can be described thus: Cytochrome panel assay with activity outcomes. Panel member name: p450-cyp2c19 Compounds with AC50 equal or less than 10 uM are considered active. Format: functional.
For series [4], the target named is Luciferin 4-monooxygenase (Photinus pyralis, UniProt P08659). The series can be described thus: firefly luciferase enzyme inhibitors, dose response, biochemical, luminescence (AID 1891).
Sequence of Luciferin 4-monooxygenase (P08659 whole entry): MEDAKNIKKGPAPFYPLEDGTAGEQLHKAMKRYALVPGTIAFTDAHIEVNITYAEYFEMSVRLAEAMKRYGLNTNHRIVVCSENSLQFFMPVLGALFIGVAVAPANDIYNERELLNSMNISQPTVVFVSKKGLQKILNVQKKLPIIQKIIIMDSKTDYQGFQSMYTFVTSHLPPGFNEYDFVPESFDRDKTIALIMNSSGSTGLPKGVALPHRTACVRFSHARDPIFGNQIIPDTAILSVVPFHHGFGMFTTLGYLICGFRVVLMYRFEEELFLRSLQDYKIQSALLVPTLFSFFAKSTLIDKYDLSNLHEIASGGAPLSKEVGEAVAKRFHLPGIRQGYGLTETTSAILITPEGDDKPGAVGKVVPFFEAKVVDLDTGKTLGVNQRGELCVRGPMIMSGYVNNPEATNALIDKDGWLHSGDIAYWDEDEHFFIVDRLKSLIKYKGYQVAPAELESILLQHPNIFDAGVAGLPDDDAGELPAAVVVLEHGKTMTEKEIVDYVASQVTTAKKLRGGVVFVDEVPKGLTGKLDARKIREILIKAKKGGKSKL
A short description of series [5]: Luminescence Cell-Based Dose Confirmation HTS to Identify Inhibitors of Platelet Dense Granule Release. [Related pubchem assays: 1663 (Primary HTS), 1678 (Summary of Project)]. Type of series: functional.
Series [6] is described as follows: Luminescence Cell-Based Dose Retest to Confirm Inhibitors of Cancer Stem Cells. [Related pubchem assays (depositor defined):AID2717, AID2721]. Type of series: functional. The settings on record: Homo sapiens.

Calls of active or inactive are those of the source. Bounds are passed on as bounds.

The term EC50 denotes the concentration that produces a half-maximal response. In general, AC50 refers to the midpoint of the concentration-response curve, whichever way the signal moves.

Sequence of Cytochrome P450 2C19 (P33261 whole entry): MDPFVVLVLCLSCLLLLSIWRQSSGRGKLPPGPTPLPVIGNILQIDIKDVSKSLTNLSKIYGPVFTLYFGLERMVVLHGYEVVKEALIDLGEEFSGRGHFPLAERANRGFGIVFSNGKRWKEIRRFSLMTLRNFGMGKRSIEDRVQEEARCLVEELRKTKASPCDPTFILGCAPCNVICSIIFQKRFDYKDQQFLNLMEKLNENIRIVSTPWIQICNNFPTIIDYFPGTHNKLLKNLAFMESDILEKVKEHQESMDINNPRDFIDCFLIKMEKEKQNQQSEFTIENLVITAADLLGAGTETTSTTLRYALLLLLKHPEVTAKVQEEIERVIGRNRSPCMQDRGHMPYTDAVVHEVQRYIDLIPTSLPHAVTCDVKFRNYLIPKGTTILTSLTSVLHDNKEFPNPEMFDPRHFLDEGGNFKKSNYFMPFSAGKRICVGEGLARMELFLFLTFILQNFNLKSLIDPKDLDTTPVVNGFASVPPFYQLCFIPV

As for `Cc1sc2nc(CN3CCC(C)CC3)nc(Cl)c2c1C`, the EC50 is 18.5 µM (active) in series [1] and 14.5 µM (active) in series [2]. Take `Fc1ccc(-c2nc3c(-c4ccc(Cl)cc4)cnn3cc2CCN2CCOCC2)cc1`: in series [3], the EC50 is > 195 µM (not active). Turning to `Fc1cnc(N2CCc3ccccc32)nc1N1CCc2ccccc21`, the EC50 in series [1] is 30 µM (active); in series [2], 25.5 µM (active). On the same counts, the results for `Oc1nc2cc3c(cc2cc1C(c1nnnn1C1CCCC1)N1CCSCC1)OCCO3` (stereo not given) are 28.9 µM (active) and 94.3 µM (active). `CN(C)c1ncc2nc(-c3ccccc3)c(=O)n(C)c2n1`: the half-maximal activity concentration (AC50) on Cytochrome P450 2C19 (read-out: AC50) was 39.8 µM (inconclusive). Take `Cc1ccc(-c2nc3cccnc3o2)cc1NC(=O)COc1ccc(Cl)cc1C`: the EC50 was 5.15 µM (active) in series [1] and 14.6 µM (active) in series [2].

Consider `COc1ccc(CCn2c(=N)c(C(=O)NCC3CCCO3)cc3c(=O)n4ccccc4nc32)cc1OC` (stereo not given), for which the half-maximal effective concentration (EC50) in series [4] and in series [5] was > 112 µM (not active) each time. `COc1cccc(-c2nnc(-c3ccco3)o2)c1`: the results for the concentration for a half-maximal effect (EC50) in series [4] and in series [5] were > 112 µM (not active) and 40.9 µM (active), respectively. For `COc1ccc(NC(=O)CN(C)CC(=O)Nc2ccc3c(c2)CCC3)cc1`, the EC50 in series [3] is reported as > 195 µM (not active). On to `Cc1ccc(C(=O)Nc2ccc(Br)c(C(F)(F)F)c2)cc1`, for which the EC50 is 19.7 µM (active) in series [1] and 23.8 µM (active) in series [2]. As to `CCCCC(CC)CN1C(=O)/C(=C/c2c[nH]nc2-c2ccccc2)SC1=S` (stereo not given), the figures for the half-maximal effective concentration (EC50) in series [1] and in series [2] were 21.3 µM (active) and 21.1 µM (active), respectively. On to `O=C(Oc1ccccc1Cl)c1ccc(-n2cncn2)nc1`, for which the EC50 in series [3] is recorded as > 195 µM (not active). `Cc1ccc(C)c(Nc2nc(N)c3ccccc3n2)c1`: the EC50 in series [4] was 12.2 µM (active); in series [5], 11 µM (active). As for `CC(C)(C)NC(=O)Cn1nnc(-c2ccc(OCc3c(F)cccc3Cl)cc2)n1`, in series [6], the AC50 is 1.33 µM (active). With `O=C1NC(=O)N(CCC2=CCCCC2)C(=O)/C1=C\NNc1ccccc1`, the AC50 in series [6] is 2.46 µM (active). As for `COc1ccc(NCc2nnc(SCC(=O)Nc3cc(C(F)(F)F)ccc3Cl)o2)cc1`, in series [3], the EC50 is > 195 µM (not active). For the compound `NC(=O)C1CCN(CC(=O)Nc2nc(-c3ccccc3)cs2)CC1`, the EC50 in series [3] is > 195 µM (not active). Same read-out and setting: the result for `CCN(CC)C(=O)CN1C(=O)/C(=C/c2ccccc2)SC1=S` reads > 195 µM (not active). As to `C=C(C)COc1ccc2c(C)c(CC(=O)OC)c(=O)oc2c1C`, the EC50 in series [1] is 81.2 µM (active); in series [2] it was 31.9 µM (active). Take `Cc1nnc2sc(-c3ccc(-c4ccc(Cl)c(C(F)(F)F)c4)o3)nn12`: the EC50 in series [4] and in series [5] was > 112 µM (not active) in each case.

As for `CCc1ccc(N(C(=O)c2csnn2)C(C(=O)NC(C)(C)C)c2ccncc2)cc1` (stereo not given), the concentration at half-maximal activity (AC50) at Cytochrome P450 2C19 (read-out: AC50) is 2.82 µM (inconclusive). For `O=C(O)CC(NC(=O)C(c1ccccc1)c1ccccc1)c1ccco1` (stereo not given), the EC50 in series [4] and in series [5] was > 112 µM (not active) throughout. Take `CCCCn1c(=O)c(C(=O)NCc2ccc(Cl)cc2)c(O)c2ccccc21`: the AC50 in series [6] was 5.25 µM (active). Consider `Nn1c(SCC(=O)NC2CCCC2)nnc1-c1ccccc1F`, for which the EC50 in series [3] is > 195 µM (not active). In the case of `CC1CCCN(C(=O)C2(NC(=O)Nc3cccc(F)c3)CCCCC2)C1` (stereo not given), the EC50 in series [3] is > 195 µM (not active). Take `CC(C)(C)C(=O)OCc1nc(-c2ccc3c(c2)OCCO3)cs1`: the EC50 in series [3] was > 195 µM (not active). Regarding `O=C(COc1ccc(Cl)cc1Cl)NN=C1c2ccccc2-c2ccccc21`, the EC50 in series [1] was 7.45 µM (active); in series [2], 6.99 µM (active). With `CCOC(=O)C1=C(CSc2nc3ccccc3s2)NC(=O)NC1c1cccc([N+](=O)[O-])c1` (stereo not given), at Cytochrome P450 2C19 (read-out: AC50), the AC50 was 1.58 µM (inconclusive).

For `CN1CCN(c2ncc3nc(-c4cccc(C#N)c4)c(=O)n(Cc4ccc(F)cc4)c3n2)CC1`, the AC50 on Cytochrome P450 2C19 (read-out: AC50) was 10 µM (inconclusive). For `Cc1c(C=C2C(=O)N(C)C(=O)N(C)C2=O)c(=O)n(-c2ccccc2)n1C`, in series [3], the EC50 is on record as > 195 µM (not active). As to `COc1cccc(NC(S)=NN2CCN(C)CC2)c1`, the AC50 at Cytochrome P450 2C19 (read-out: AC50) was 28.2 µM (inconclusive).

As to `COc1ccc(-c2nc3scc(-c4ccc(OC)c(OC)c4)c3c(=O)o2)cc1`, the EC50 was 24.7 µM (active) in series [1] and 16.4 µM (active) in series [2]. With `CCCn1c(SCC(=O)N2CCCC(C)C2)nnc1-c1ccccn1` (stereo not given), the EC50 in series [4] and in series [5] was > 112 µM (not active) throughout.

In the case of `Cc1ccc2[nH]c(/C(C#N)=C\c3ccc(Oc4ccc([N+](=O)[O-])cn4)cc3)nc2c1`, the EC50 in series [1] was 76.4 µM (active); in series [2] it was 46.9 µM (active). Regarding `O=C(CC1Nc2ccccc2NC1=O)Nc1ccccc1NC(=O)CC1Nc2ccccc2NC1=O` (stereo not given), the EC50 in series [3] is > 195 µM (not active). As for `O=C(CSc1nc(-c2ccccc2)cc(C(F)(F)F)n1)c1cccc([N+](=O)[O-])c1`, the AC50 in series [6] is 5.41 µM (active). Consider `CCOc1ccc(NC(=O)Nc2cc(C)ccc2F)cc1`, for which the EC50 in series [4] was 1.02 µM (active); in series [5], 1.81 µM (active). As to `COc1cc(CNc2ccc3[nH]c(O)nc3c2)ccc1OCC(=O)NC(C)(C)C`, in series [5], the EC50 is 12.4 µM (active). Regarding `CCCn1c(C)cc(=O)c2cc(NC(=O)c3cnccn3)ccc21`, the figures for the EC50 in series [1] and in series [2] were 33.7 µM (active) and 19.9 µM (active), respectively.

Take `Cc1nc(SCC(=O)NCC2CCCO2)nc(O)c1C` (stereo not given): in series [3], the EC50 is reported as > 195 µM (not active). Still for that read-out and setting: to `Cc1occc1-c1nnc(SCC(=O)Nc2ccccc2)n1C` belongs > 195 µM (not active).

With `CN(C)c1ccc(CNC(=O)c2cc(S(=O)(=O)N3CCOCC3)cn2C)cc1`, the EC50 in series [4] and in series [5] was > 112 µM (not active) in each case. For the compound `Cn1c(SCC(=O)N=Nc2c(O)[nH]c3ccccc23)nc2ccccc21`, the EC50 in series [4] and in series [5] was > 112 µM (not active) in each case. Turning to `[O-]/[N+](=C/c1ccc(F)cc1)c1ccc(Cl)cc1`, the EC50 in series [4] and in series [5] was > 112 µM (not active) each time. As to `O=C(/C=C/c1ccc(Br)o1)NCCCN1CCOCC1`, the concentration for a half-maximal effect (EC50) in series [3] is recorded as > 195 µM (not active). For the compound `Cc1cccc(N(CC(=O)N2CCOCC2)S(C)(=O)=O)c1`, the AC50 entry on Cytochrome P450 2C19 was “inconclusive”.

As for `O=c1c2ccccc2nc(COc2ccccc2)n1/N=C/c1c[nH]nc1-c1ccccc1`, the results for the EC50 in series [1] and in series [2] were 19.6 µM (active) and 24.5 µM (active), respectively. Regarding `CN(C)c1ccc(/C=N/NC(=O)C2COc3ccccc3O2)o1` (stereo not given), in series [3], the EC50 is > 195 µM (not active). Consider `COc1ccc(/C=N/Nc2ncccc2[N+](=O)[O-])c(OC)c1`, for which the 50% effective concentration (EC50) was 2.42 µM (active) in series [4] and 2.57 µM (active) in series [5]. For `CCc1ccc(/C=N/NC(=O)c2nnn(-c3nonc3N)c2CN2CCOCC2)cc1`, the EC50 in series [4] is > 112 µM (not active); in series [5], 52.9 µM (active). With `CCCSc1nnc(CSc2nc3nc(C)cc(C)n3n2)o1`, the AC50 on Cytochrome P450 2C19 (read-out: AC50) is 15.8 µM (inconclusive).

Values taken from ChEMBL document CHEMBL1201862, “PubChem BioAssay data set” (2004).
